# Measured values taken from publication PMC11345841, “Exploring 2-Sulfonylpyrimidine Warheads as Acrylamide Surrogates for Targeted Covalent Inhibition: A BTK Story” (Journal of Medicinal Chemistry, 2024).
# What was measured:
# wild-type BTK [1] = molecular target: T1, wild-type BTK (Homo sapiens, UniProt Q06187); test: BTK in vitro activity assay (ADP-Glo, poly-Glu:Tyr phosphorylation, TCEP); details: for remaining activity at 0.1 µM: read-out: Remaining BTK activity (%); for inhibition at 0.1 µM: read-out: inhibition of BTK activity
# T1 sequence (Q06187 whole entry): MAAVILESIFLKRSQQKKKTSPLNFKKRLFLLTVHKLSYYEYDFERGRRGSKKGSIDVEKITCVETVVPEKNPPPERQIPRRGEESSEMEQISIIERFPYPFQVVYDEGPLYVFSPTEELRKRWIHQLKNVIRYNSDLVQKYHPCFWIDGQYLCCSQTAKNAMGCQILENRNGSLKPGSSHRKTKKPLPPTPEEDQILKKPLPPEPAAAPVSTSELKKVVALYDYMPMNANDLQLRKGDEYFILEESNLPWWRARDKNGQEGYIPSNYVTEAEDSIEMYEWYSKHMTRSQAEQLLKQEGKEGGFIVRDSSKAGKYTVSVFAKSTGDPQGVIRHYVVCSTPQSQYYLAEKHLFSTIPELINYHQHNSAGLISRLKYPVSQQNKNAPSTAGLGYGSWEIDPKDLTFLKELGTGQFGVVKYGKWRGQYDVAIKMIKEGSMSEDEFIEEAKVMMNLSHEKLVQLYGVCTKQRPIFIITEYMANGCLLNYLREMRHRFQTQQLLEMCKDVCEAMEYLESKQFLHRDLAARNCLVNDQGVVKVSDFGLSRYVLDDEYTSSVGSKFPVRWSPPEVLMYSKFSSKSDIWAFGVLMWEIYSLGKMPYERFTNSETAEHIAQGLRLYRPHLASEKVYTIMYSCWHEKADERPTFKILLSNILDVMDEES
# wild-type BTK [2] = molecular target: T1, wild-type BTK; test: BTK in vitro activity assay in the presence of DTT vs TCEP (Figure S6); assay type: biochemical; details: 100 nM compound; 2 mM DTT instead of TCEP
# Method: Left: activity of WT BTK in the presence of DTT (2 mM) or TCEP (1 mM)
# (mean±range of duplicate determinations). Right: effect of compounds on wild type BTK
# activity in the presence of TCEP or DTT. Compounds (100 nM) were pre-incubated with BTK
# in the presence of TCEP or DTT for 10 min before initiating the reaction by addition of ATP.
# Graphs show relative BTK kinase activity (mean±range from 2-4 determinations) relative to
# DMSO control (i.e. no compound, set to 100%).
compound,measurement,setting,value
"CS(=O)(=O)c1nccc(C(=O)N2CCCC(n3nc(-c4ccc(Oc5ccccc5)cc4)c4c(N)ncnc43)C2)n1 (stereo in doubt) [Compound 5a, (R)-(3-(4-Amino-3-(4-phenoxyphenyl)-1H-pyrazolo[3,4-d]pyrimidin-1-yl)piperidin-1-yl)(2-(methylsulfonyl)pyrimidin-4-yl)methanone]",remaining activity at 0.1 µM,wild-type BTK [1],17 ± 1%
same,inhibition at 0.1 µM,wild-type BTK [1],80 to 90%
"CS(=O)(=O)c1ncc(Cl)c(C(=O)N2CCCC(n3nc(-c4ccc(Oc5ccccc5)cc4)c4c(N)ncnc43)C2)n1 (stereo in doubt) [Compound 5d, (R)-(3-(4-Amino-3-(4-phenoxyphenyl)-1H-pyrazolo[3,4-d]pyrimidin-1-yl)piperidin-1-yl)(5-chloro-2-(methylsulfonyl)pyrimidin-4-yl)methanone]",BTK inhibition in the presence of DTT,wild-type BTK [2],almost no inhibition
same,remaining activity at 0.1 µM,wild-type BTK [1],17 ± 2%
same,inhibition at 0.1 µM,wild-type BTK [1],80 to 90%
"CS(=O)(=O)c1ncc(C(=O)N2CCCC(n3nc(-c4ccc(Oc5ccccc5)cc4)c4c(N)ncnc43)C2)cn1 (stereo in doubt) [Compound 5e, (R)-(3-(4-Amino-3-(4-phenoxyphenyl)-1H-pyrazolo[3,4-d]pyrimidin-1-yl)piperidin-1-yl)(2-(methylsulfonyl)pyrimidin-5-yl)methanone]",remaining activity at 0.1 µM,wild-type BTK [1],9 ± 2%
same,inhibition at 0.1 µM,wild-type BTK [1],80 to 90%
"CCCCS(=O)(=O)c1ncc(C(=O)N2CCCC(n3nc(-c4ccc(Oc5ccccc5)cc4)c4c(N)ncnc43)C2)cn1 (stereo in doubt) [Compound 5f, (R)-(3-(4-Amino-3-(4-phenoxyphenyl)-1H-pyrazolo[3,4-d]pyrimidin-1-yl)piperidin-1-yl)(2-(butylsulfonyl)pyrimidin-5-yl)methanone]",remaining activity at 0.1 µM,wild-type BTK [1],38 ± 2%
same,inhibition at 0.1 µM,wild-type BTK [1],40 to 60%
"Nc1ncnc2c1c(-c1ccc(Oc3ccccc3)cc1)nn2C1CCCN(C(=O)c2cnc(S(=O)(=O)c3ccccc3)nc2)C1 (stereo in doubt) [Compound 5g, (R)-(3-(4-Amino-3-(4-phenoxyphenyl)-1H-pyrazolo[3,4-d]pyrimidin-1-yl)piperidin-1-yl)(2-(phenylsulfonyl)pyrimidin-5-yl)methanone]",remaining activity at 0.1 µM,wild-type BTK [1],35 ± 1%
same,inhibition at 0.1 µM,wild-type BTK [1],40 to 60%
"CSc1nccc(C(=O)N2CCC[C@@H](n3nc(-c4ccc(Oc5ccccc5)cc4)c4c(N)ncnc43)C2)n1 [Compound 4a, (R)-(3-(4-Amino-3-(4-phenoxyphenyl)-1H-pyrazolo[3,4-d]pyrimidin-1-yl)piperidin-1-yl)(2-(methylthio)pyrimidin-4-yl)methanone]",remaining activity at 0.1 µM,wild-type BTK [1],84 ± 8%
"CCCCSc1nccc(C(=O)N2CCC[C@@H](n3nc(-c4ccc(Oc5ccccc5)cc4)c4c(N)ncnc43)C2)n1 [Compound 4b, (R)-(3-(4-Amino-3-(4-phenoxyphenyl)-1H-pyrazolo[3,4-d]pyrimidin-1-yl)piperidin-1-yl)(2-(butylthio)pyrimidin-4-yl)methanone]",remaining activity at 0.1 µM,wild-type BTK [1],82 ± 1%
"Nc1ncnc2c1c(-c1ccc(Oc3ccccc3)cc1)nn2[C@@H]1CCCN(C(=O)c2ccnc(Sc3ccccc3)n2)C1 [Compound 4c, (R)-(3-(4-Amino-3-(4-phenoxyphenyl)-1H-pyrazolo[3,4-d]pyrimidin-1-yl)piperidin-1-yl)(2-(phenylthio)pyrimidin-4-yl)methanone]",remaining activity at 0.1 µM,wild-type BTK [1],98 ± 5%
"CSc1ncc(Cl)c(C(=O)N2CCC[C@@H](n3nc(-c4ccc(Oc5ccccc5)cc4)c4c(N)ncnc43)C2)n1 [Compound 4d, (R)-(3-(4-Amino-3-(4-phenoxyphenyl)-1H-pyrazolo[3,4-d]pyrimidin-1-yl)piperidin-1-yl)(5-chloro-2-(methylthio)pyrimidin-4-yl)methanone]",remaining activity at 0.1 µM,wild-type BTK [1],100 ± 6%
"CSc1ncc(C(=O)N2CCC[C@@H](n3nc(-c4ccc(Oc5ccccc5)cc4)c4c(N)ncnc43)C2)cn1 [Compound 4e, (R)-(3-(4-Amino-3-(4-phenoxyphenyl)-1H-pyrazolo[3,4-d]pyrimidin-1-yl)piperidin-1-yl)(2-(methylthio)pyrimidin-5-yl)methanone]",remaining activity at 0.1 µM,wild-type BTK [1],83 ± 9%
"CCCCSc1ncc(C(=O)N2CCC[C@@H](n3nc(-c4ccc(Oc5ccccc5)cc4)c4c(N)ncnc43)C2)cn1 [Compound 4f, (R)-(3-(4-Amino-3-(4-phenoxyphenyl)-1H-pyrazolo[3,4-d]pyrimidin-1-yl)piperidin-1-yl)(2-(butylthio)pyrimidin-5-yl)methanone]",remaining activity at 0.1 µM,wild-type BTK [1],84 ± 5%
"Nc1ncnc2c1c(-c1ccc(Oc3ccccc3)cc1)nn2[C@@H]1CCCN(C(=O)c2cnc(Sc3ccccc3)nc2)C1 [Compound 4g, (R)-(3-(4-Amino-3-(4-phenoxyphenyl)-1H-pyrazolo[3,4-d]pyrimidin-1-yl)piperidin-1-yl)(2-(phenylthio)pyrimidin-5-yl)methanone]",remaining activity at 0.1 µM,wild-type BTK [1],100 ± 6%
"CCCCS(=O)(=O)c1nccc(C(=O)N2CCC[C@H](n3nc(-c4ccc(Oc5ccccc5)cc4)c4c(N)ncnc43)C2)n1 [Compound 5b, (3-(4-Amino-3-(4-phenoxyphenyl)-1H-pyrazolo[3,4-d]pyrimidin-1-yl)piperidin-1-yl)(2-(butylsulfonyl)pyrimidin-4-yl)methanone]",remaining activity at 0.1 µM,wild-type BTK [1],58 ± 3%
same,inhibition at 0.1 µM,wild-type BTK [1],40 to 60%
"Nc1ncnc2c1c(-c1ccc(Oc3ccccc3)cc1)nn2[C@H]1CCCN(C(=O)c2ccnc(S(=O)(=O)c3ccccc3)n2)C1 [Compound 5c, (3-(4-Amino-3-(4-phenoxyphenyl)-1H-pyrazolo[3,4-d]pyrimidin-1-yl)piperidin-1-yl)(2-(phenylsulfonyl)pyrimidin-4-yl)methanone]",remaining activity at 0.1 µM,wild-type BTK [1],40 ± 1%
same,inhibition at 0.1 µM,wild-type BTK [1],40 to 60%
"CSc1ncc(C)c(N2CCCC(n3nc(-c4ccc(Oc5ccccc5)cc4)c4c(N)ncnc43)C2)n1 (stereo not drawn) [Compound 7a, 1-(1-(5-Methyl-2-(methylthio)pyrimidin-4-yl)piperidin-3-yl)-3-(4-phenoxyphenyl)-1H-pyrazolo[3,4-d]pyrimidin-4-amine]",remaining activity at 0.1 µM,wild-type BTK [1],40 ± 0.3%
"COC(=O)c1cnc(SC)nc1N1CCC[C@@H](n2nc(-c3ccc(Oc4ccccc4)cc3)c3c(N)ncnc32)C1 [Compound 7b, Methyl (R)-4-(3-(4-Amino-3-(4-phenoxyphenyl)-1H-pyrazolo[3,4-d]pyrimidin-1-yl)piperidin-1-yl)-2-(methylthio)pyrimidine-5-carboxylate]",remaining activity at 0.1 µM,wild-type BTK [1],76 ± 2%
"CCOC(=O)c1cnc(SC)nc1N1CCC[C@@H](n2nc(-c3ccc(Oc4ccccc4)cc3)c3c(N)ncnc32)C1 [Compound 7c, Ethyl (R)-4-(3-(4-Amino-3-(4-phenoxyphenyl)-1H-pyrazolo[3,4-d]pyrimidin-1-yl)piperidin-1-yl)-2-(methylthio)pyrimidine-5-carboxylate]",remaining activity at 0.1 µM,wild-type BTK [1],105 ± 4%
"CNC(=O)c1cnc(SC)nc1N1CCCC(n2nc(-c3ccc(Oc4ccccc4)cc3)c3c(N)ncnc32)C1 (stereo not drawn) [Compound 7d, 4-(3-(4-Amino-3-(4-phenoxyphenyl)-1H-pyrazolo[3,4-d]pyrimidin-1-yl)piperidin-1-yl)-N-methyl-2-(methylthio)pyrimidine-5-carboxamide]",remaining activity at 0.1 µM,wild-type BTK [1],78 ± 2%
"CSc1ncc(N2CCCC(n3nc(-c4ccc(Oc5ccccc5)cc4)c4c(N)ncnc43)C2)c(C)n1 (stereo not drawn) [Compound 7e, 1-(1-(4-Methyl-2-(methylthio)pyrimidin-5-yl)piperidin-3-yl)-3-(4-phenoxyphenyl)-1H-pyrazolo[3,4-d]pyrimidin-4-amine]",remaining activity at 0.1 µM,wild-type BTK [1],69 ± 2%
"CS(=O)(=O)c1nccc(N2CCC[C@@H](n3nc(-c4ccc(Oc5ccccc5)cc4)c4c(N)ncnc43)C2)n1 [Compound 8e, (R)-1-(1-(2-(Methylsulfonyl)pyrimidin-4-yl)piperidin-3-yl)-3-(4-phenoxyphenyl)-1H-pyrazolo[3,4-d]pyrimidin-4-amine]",remaining activity at 0.1 µM,wild-type BTK [1],48 ± 0.3%
"Cc1nc(S(C)(=O)=O)ncc1N1CCCC(n2nc(-c3ccc(Oc4ccccc4)cc3)c3c(N)ncnc32)C1 (stereo not drawn) [Compound 9a, 1-(1-(4-Methyl-2-(methylsulfonyl)pyrimidin-5-yl)piperidin-3-yl)-3-(4-phenoxyphenyl)-1H-pyrazolo[3,4-d]pyrimidin-4-amine]",remaining activity at 0.1 µM,wild-type BTK [1],80 ± 3%
"CS(=O)(=O)c1ncc(N2CCC[C@@H](n3nc(-c4ccc(Oc5ccccc5)cc4)c4c(N)ncnc43)C2)cn1 [Compound 9b, (R)-1-(1-(2-(Methylsulfonyl)pyrimidin-5-yl)piperidin-3-yl)-3-(4-phenoxyphenyl)-1H-pyrazolo[3,4-d]pyrimidin-4-amine]",remaining activity at 0.1 µM,wild-type BTK [1],103 ± 5%
"Nc1ncnc2c1c(-c1ccc(Oc3ccccc3)cc1)nn2[C@@H]1CCCN(C(=O)c2ccccc2)C1 [Compound 10, (R)-(3-(4-Amino-3-(4-phenoxyphenyl)-1H-pyrazolo[3,4-d]pyrimidin-1-yl)piperidin-1-yl)(phenyl)methanone]",remaining activity at 0.1 µM,wild-type BTK [1],100 ± 0.2%
"Nc1ncnc2c1c(-c1ccc(Oc3ccccc3)cc1)nn2[C@@H]1CCCN(C(=O)c2ccncn2)C1 [Compound 12a, (R)-(3-(4-Amino-3-(4-phenoxyphenyl)-1H-pyrazolo[3,4-d]pyrimidin-1-yl)piperidin-1-yl)(pyrimidin-4-yl)methanone]",remaining activity at 0.1 µM,wild-type BTK [1],53 ± 2%
"Nc1ncnc2c1c(-c1ccc(Oc3ccccc3)cc1)nn2[C@@H]1CCCN(C(=O)c2cncnc2)C1 [Compound 12b, (R)-(3-(4-Amino-3-(4-phenoxyphenyl)-1H-pyrazolo[3,4-d]pyrimidin-1-yl)piperidin-1-yl)(pyrimidin-5-yl)methanone]",remaining activity at 0.1 µM,wild-type BTK [1],83 ± 7%
